Tests used:
Format in all cases: in vivo
[1] = test system: sedge, umbrella (small-flower umbrella sedge, Cyperus difformis); experiment: Test B flooded paddy test; conditions: Flood, 250 g ai/ha; 0 to 100 scale where 0 is no effect and 100 is complete control; 13 to 15 d
In short: (§1)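 Visual ratings (0 none to 100 complete control) are relative to untreated plants, taken 13–15 d after treatment in a greenhouse. Test material went straight into floodwater standing 3 cm above the soil, kept constant, on plants at the 2-leaf stage.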

[2] = test system: ducksalad (Heteranthera limosa); experiment: Test B flooded paddy test; conditions: Flood, 250 g ai/ha; 0 to 100 scale where 0 is no effect and 100 is complete control; 13 to 15 d
In short: as §1

[3] = test system: barnyardgrass (Echinochloa crus-galli); experiment: Test B flooded paddy test; conditions: Flood, 250 g ai/ha; 0 to 100 scale where 0 is no effect and 100 is complete control; 13 to 15 d
In short: as §1

rice (Oryra sativa) = experiment: Test B flooded paddy test; conditions: Flood, 250 g ai/ha; 0 to 100 scale where 0 is no effect and 100 is complete control; 13 to 15 d
In short: as §1

rice (Oryza sativa) = experiment: Test C flooded paddy test; conditions: Flood; for Plant response rating, Rice: 31 g ai/ha, scale 0 to 100 (0 no effect, 100 complete control), 13 to 15 d; for Plant response rating (scale of 0 to 100), Rice: 0 is no effect, 100 is complete control
Excerpt: (§2) Plant species in the flooded paddy test consisted of rice (Oryza sativa), sedge, umbrella (small-flower umbrella sedge, Cyperus difformis), ducksalad (Heteranthera limosa), and barnyardgrass (Echinochloa crus-galli) grown to the 2-leaf stage for testing. At time of treatment, test pots were flooded to 3 cm above the soil surface, treated by application of test compounds directly to the paddy water, and then maintained at that water depth for the duration of the test. Treated plants and controls were maintained in a greenhouse for 13 to 15 d, after which time all species were compared to controls and visually evaluated. Plant response ratings, summarized in Table C, are based on a scale of 0 to 100 where 0 is no effect and 100 is complete control. A dash (-) response means no test result.

[4] = test system: sedge, umbrella (small-flower umbrella sedge, Cyperus difformis); experiment: Test C flooded paddy test; conditions: Flood; for Plant response rating, Sedge, Umbrella: 31 g ai/ha, scale 0 to 100 (0 no effect, 100 complete control), 13 to 15 d; for Plant response rating (scale of 0 to 100), Sedge, Umbrella: 0 is no effect, 100 is complete control
Excerpt: as §2

[5] = test system: ducksalad (Heteranthera limosa); experiment: Test C flooded paddy test; conditions: Flood; for Plant response rating, Ducksalad: 31 g ai/ha, scale 0 to 100 (0 no effect, 100 complete control), 13 to 15 d; for Plant response rating (scale of 0 to 100), Ducksalad: 0 is no effect, 100 is complete control
Excerpt: as §2

[6] = test system: barnyardgrass (Echinochloa crus-galli); experiment: Test C flooded paddy test; conditions: Flood; for Plant response rating, Barnyardgrass: 31 g ai/ha, scale 0 to 100 (0 no effect, 100 complete control), 13 to 15 d; for Plant response rating (scale of 0 to 100), Barnyardgrass: 0 is no effect, 100 is complete control
Excerpt: as §2

Kochia (Kochia scoparia) [7] = experiment: Test A preemergence
In short: (§3)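 Preemergence soil spray on seeded pots or post-emergence spray on 1–2 leaf plants, in loam–sand blend. Greenhouse ~10 d. Visual rating 0–100 against untreated plants.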

[8] = test system: ragweed (common ragweed, Ambrosia elatior); experiment: Test A preemergence
In short: as §3

[9] = test system: barnyardgrass (Echinochloa crus-galli); experiment: Test A preemergence
In short: as §3

[10] = test system: ryegrass, Italian (Italian ryegrass, Lolium multiflorum); experiment: Test A preemergence
In short: as §3

[11] = test system: giant foxtail (Setaria faberii); experiment: Test A preemergence
In short: as §3

[12] = test system: pigweed (Amaranthus retroflexus); experiment: Test A preemergence
Kochia (Kochia scoparia) [13] = experiment: Test A postemergence; conditions: postemergence, 0 to 100 scale (0 no effect, 100 complete control)
In short: as §3

[14] = test system: Galium (catchweed bedstraw, Galium aparine); experiment: Test A postemergence; conditions: postemergence, 0 to 100 scale (0 no effect, 100 complete control)
In short: as §3

[15] = test system: wheat (Triticum aestivum); experiment: Test A postemergence; conditions: postemergence, 0 to 100 scale (0 no effect, 100 complete control)
In short: as §3

[16] = test system: blackgrass (Alopecurus myosuroides); experiment: Test A postemergence
In short: as §3

[17] = test system: ragweed (common ragweed, Ambrosia elatior); experiment: Test A postemergence; conditions: postemergence, 0 to 100 scale (0 no effect, 100 complete control)
In short: as §3

[18] = test system: barnyardgrass (Echinochloa crus-galli); experiment: Test A postemergence
In short: as §3

[19] = test system: ryegrass, Italian (Italian ryegrass, Lolium multiflorum); experiment: Test A postemergence; conditions: postemergence, 0 to 100 scale (0 no effect, 100 complete control)
In short: as §3

[20] = test system: giant foxtail (Setaria faberii); experiment: Test A postemergence; conditions: postemergence, 0 to 100 scale (0 no effect, 100 complete control)
In short: as §3

[21] = test system: pigweed (Amaranthus retroflexus); experiment: Test A postemergence; conditions: postemergence, 0 to 100 scale (0 no effect, 100 complete control)
In short: as §3

corn (Zea mays) = experiment: Test A postemergence
In short: as §3

[22] = 125 g ai/ha, Preemergence, visual injury after approximately 10 d, 0 to 100 scale where 0 is no effect and 100 is complete control
[23] = 500 g ai/ha, preemergence, 0 to 100 scale, 0 = no effect, 100 = complete control
[24] = 125 g ai/ha, visual rating after approx. 10 d
[25] = 500 g ai/ha, visual injury, approx. 10 d
[26] = 125 g ai/ha, postemergence, visual rating after approx. 10 d, 0 to 100 scale (0 no effect, 100 complete control)
[27] = Postemergence, 500 g ai/ha, 0 to 100 scale where 0 is no effect and 100 is complete control
[28] = 500 g ai/ha, postemergence, visual injury, 0 to 100 scale (0 no effect, 100 complete control), approx. 10 d

CN1CC(c2cccc(C(F)(F)F)c2)C(C(=O)Nc2ccccc2C(F)(F)F)C1=O (centres unmarked) [Compound 638]
70: Plant response rating, Wheat [15, 25] | Plant response rating, Blackgrass [16, 27] | Plant response rating, Corn (corn (Zea mays); [26])
85: Plant response rating, Barnyardgrass [3]
75: Plant response rating (scale of 0 to 100), Ducksalad ([5]; 250 g ai/ha) | Plant response rating (scale of 0 to 100), Barnyardgrass ([6]; 250 g ai/ha)
80: Plant response rating, Corn (corn (Zea mays); [27])
25: Plant response rating (scale of 0 to 100), Rice (rice (Oryza sativa); 62 g ai/ha) | Plant response rating (scale of 0 to 100), Rice (rice (Oryza sativa); 125 g ai/ha) | Plant response rating (scale of 0 to 100), Rice (rice (Oryza sativa); 250 g ai/ha)
45: Plant response rating, Barnyardgrass [6]
60: Plant response rating (scale of 0 to 100), Ducksalad ([5]; 125 g ai/ha) | Plant response rating (scale of 0 to 100), Barnyardgrass ([6]; 125 g ai/ha) | Plant response rating, Ragweed [8, 23] | Plant response rating, Pigweed [12, 23] | Plant response rating, Galium [14, 24] | Plant response rating, Galium [14, 25] | Plant response rating, Wheat [15, 24]
0: Plant response rating, Sedge, Umbrella [1] | Plant response rating, Sedge, Umbrella [4] | Plant response rating (scale of 0 to 100), Sedge, Umbrella ([4]; 62 g ai/ha) | Plant response rating (scale of 0 to 100), Sedge, Umbrella ([4]; 125 g ai/ha) | Plant response rating (scale of 0 to 100), Sedge, Umbrella ([4]; 250 g ai/ha) | Plant response rating, Ducksalad [5] | Plant response rating, Kochia (Kochia (Kochia scoparia) [7]; [22]) | Plant response rating, Ragweed [17, 24] | Plant response rating, Ragweed [17, 25]
100: Plant response rating, Ducksalad [2] | Plant response rating, Foxtail, Giant [11, 23]
10: Plant response rating, Rice (rice (Oryra sativa))
20: Plant response rating, Rice (rice (Oryza sativa)) | Plant response rating, Kochia (Kochia (Kochia scoparia) [7]; [23]) | Plant response rating, Kochia (Kochia (Kochia scoparia) [13]; [24]) | Plant response rating, Pigweed [21, 24]
55: Plant response rating (scale of 0 to 100), Barnyardgrass ([6]; 62 g ai/ha)
40: Plant response rating (scale of 0 to 100), Ducksalad ([5]; 62 g ai/ha) | Plant response rating, Pigweed [12, 22] | Plant response rating, Kochia (Kochia (Kochia scoparia) [13]; [25]) | Plant response rating, Ryegrass, Italian [19, 25]
90: Plant response rating, Barnyardgrass [9, 22] | Plant response rating, Barnyardgrass [9, 23] | Plant response rating, Ryegrass, Italian [10, 23] | Plant response rating, Foxtail, Giant [11, 22] | Plant response rating, Barnyardgrass [18, 26] | Plant response rating, Barnyardgrass [18, 27] | Plant response rating, Foxtail, Giant [20, 24] | Plant response rating, Foxtail, Giant [20, 25]
30: Plant response rating, Ragweed [8, 22] | Plant response rating, Ryegrass, Italian [10, 22] | Plant response rating, Ryegrass, Italian [19, 24]
50: Plant response rating, Blackgrass [16, 26] | Plant response rating, Pigweed [21, 25]

CN1CC(c2cc(F)cc(F)c2)C(C(=O)Nc2ccccc2F)C1=O (centres unmarked) [Compound 643]
60: Plant response rating, Blackgrass [16, 28]
50: Plant response rating (scale of 0 to 100), Ducksalad ([5]; 62 g ai/ha) | Plant response rating, Galium [14, 25] | Plant response rating, Wheat [15, 25] | Plant response rating, Blackgrass [16, 26]
20: Plant response rating, Ducksalad [5] | Plant response rating, Ragweed [8, 23] | Plant response rating, Ryegrass, Italian [10, 22] | Plant response rating, Pigweed [12, 23] | Plant response rating, Kochia (Kochia (Kochia scoparia) [13]; [25])
35: Plant response rating (scale of 0 to 100), Barnyardgrass ([6]; 62 g ai/ha)
10: Plant response rating (scale of 0 to 100), Rice (rice (Oryza sativa); 250 g ai/ha)
100: Plant response rating, Ducksalad [2] | Plant response rating (scale of 0 to 100), Ducksalad ([5]; 250 g ai/ha) | Plant response rating, Foxtail, Giant [11, 22] | Plant response rating, Foxtail, Giant [11, 23]
70: Plant response rating, Corn (corn (Zea mays); [28])
75: Plant response rating (scale of 0 to 100), Ducksalad ([5]; 125 g ai/ha)
30: Plant response rating, Ragweed [17, 25] | Plant response rating, Ryegrass, Italian [19, 24] | Plant response rating, Ryegrass, Italian [19, 25]
65: Plant response rating (scale of 0 to 100), Barnyardgrass ([6]; 125 g ai/ha)
80: Plant response rating, Barnyardgrass [3]
40: Plant response rating, Kochia (Kochia (Kochia scoparia) [7]; [23])
15: Plant response rating, Rice (rice (Oryra sativa))
0: Plant response rating, Sedge, Umbrella [1] | Plant response rating, Rice (rice (Oryza sativa)) | Plant response rating (scale of 0 to 100), Rice (rice (Oryza sativa); 62 g ai/ha) | Plant response rating (scale of 0 to 100), Rice (rice (Oryza sativa); 125 g ai/ha) | Plant response rating, Sedge, Umbrella [4] | Plant response rating (scale of 0 to 100), Sedge, Umbrella ([4]; 62 g ai/ha) | Plant response rating (scale of 0 to 100), Sedge, Umbrella ([4]; 125 g ai/ha) | Plant response rating (scale of 0 to 100), Sedge, Umbrella ([4]; 250 g ai/ha) | Plant response rating, Barnyardgrass [6] | Plant response rating, Kochia (Kochia (Kochia scoparia) [7]; [22]) | Plant response rating, Ragweed [8, 22] | Plant response rating, Pigweed [12, 22] | Plant response rating, Kochia (Kochia (Kochia scoparia) [13]; [24]) | Plant response rating, Galium [14, 24] | Plant response rating, Wheat [15, 24] | Plant response rating, Ragweed [17, 24] | Plant response rating, Pigweed [21, 24] | Plant response rating, Pigweed [21, 25] | Plant response rating, Corn (corn (Zea mays); [26])
90: Plant response rating (scale of 0 to 100), Barnyardgrass ([6]; 250 g ai/ha) | Plant response rating, Barnyardgrass [9, 22] | Plant response rating, Barnyardgrass [9, 23] | Plant response rating, Ryegrass, Italian [10, 23] | Plant response rating, Barnyardgrass [18, 26] | Plant response rating, Barnyardgrass [18, 28] | Plant response rating, Foxtail, Giant [20, 24] | Plant response rating, Foxtail, Giant [20, 25]

Reference: patent publication US12077503B2, “Substituted cyclic amides and their use as herbicides” (FMC CORPORATION, priority 2015, dated 2024)
